Experimental data: PubChem BioAssay (NCI)
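Cultured in 96-well plates, cells were exposed to test compound for 48 hours across five concentrations. TGI: concentration producing complete growth inhibition.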

Assays:
Assay in all cases: growth of human tumour cells (NCI), 48 h
[1] = test system: NCI-H23 lung
[2] = test system: XF 498 CNS
[3] = test system: SNB-78 CNS
[4] = test system: DMS 273 small cell lung
[5] = test system: NCI-H226 lung
[6] = test system: NCI-H460 lung
[7] = test system: CAKI-1 renal
[8] = test system: SK-MEL-2 melanoma
[9] = test system: OVCAR-3 ovarian
[10] = test system: HCC-2998 colon
[11] = test system: MALME-3M melanoma
[12] = test system: A498 renal
[13] = test system: K-562 leukemia
[14] = test system: U251 CNS
[15] = test system: DMS 114 small cell lung
[16] = test system: SF-295 CNS
[17] = test system: NCI-H522 lung
[18] = test system: IGROV1 ovarian
[19] = test system: SK-MEL-5 melanoma
[20] = test system: M14 melanoma
[21] = test system: HL-60(TB) leukemia
[22] = test system: RPMI-8226 leukemia
[23] = test system: OVCAR-8 ovarian
[24] = test system: SF-539 CNS
[25] = test system: SF-268 CNS
[26] = test system: SNB-19 CNS
[27] = test system: SR leukemia
[28] = test system: KM12 colon
[29] = test system: DLD-1 colon
[30] = test system: OVCAR-5 ovarian
[31] = test system: OVCAR-4 ovarian
[32] = test system: SK-MEL-28 melanoma
[33] = test system: M19-MEL melanoma
[34] = test system: UO-31 renal
[35] = test system: HCT-116 colon
[36] = test system: MOLT-4 leukemia
[37] = test system: SN12C renal
[38] = test system: CCRF-CEM leukemia
[39] = test system: UACC-62 melanoma
[40] = test system: ACHN renal
[41] = test system: COLO 205 colon
[42] = test system: KM20L2 colon
[43] = test system: HT29 colon
[44] = test system: HOP-92 NSCLC
[45] = test system: HCT-15 colon
[46] = test system: UACC-257 melanoma
[47] = test system: HOP-62 NSCLC
[48] = test system: SK-OV-3 ovarian
[49] = test system: LXFL 529 NSCLC
[50] = test system: A549 NSCLC
[51] = test system: TK-10 renal
[52] = test system: SNB-75 CNS
[53] = test system: SW-620 colon

COC(=O)C1=COC2OC3/C(=C\c4ccc(O)c(OC)c4)C(=O)OC34C=CC1C24 (stereo not drawn)
TGI [1]: 32.5 µM
TGI [2]: 18.4 µM
TGI [3]: 39.4 µM
TGI [4]: 30 µM
TGI [5]: 29.2 µM
TGI [6]: 31.7 µM
TGI [7]: 41.7 µM
TGI [8]: 23.7 µM
TGI [9]: 28.2 µM
TGI [10]: 22.9 µM
TGI [11]: 31 µM
TGI [12]: 45.4 µM
TGI [13]: 37.6 µM
TGI [14]: 28.5 µM
TGI [15]: 39.5 µM
TGI [16]: 32.5 µM
TGI [17]: 28.8 µM
TGI [18]: 40.3 µM
TGI [19]: > 100 µM
TGI [20]: 14.7 µM
TGI [21]: 27.7 µM
TGI [22]: > 100 µM
TGI [23]: 37.7 µM
TGI [24]: 31.2 µM
TGI [25]: 35.3 µM
TGI [26]: 35.3 µM
TGI [27]: > 100 µM
TGI [28]: 26.8 µM
TGI [29]: 32.5 µM
TGI [30]: 32.6 µM
TGI [31]: 34.4 µM
TGI [32]: 33.7 µM
TGI [33]: 27.3 µM
TGI [34]: 28.3 µM
TGI [35]: 34.4 µM
TGI [36]: > 100 µM
TGI [37]: 35.1 µM
TGI [38]: 49.2 µM
TGI [39]: 36.4 µM
TGI [40]: 28.3 µM
TGI [41]: 43.8 µM
TGI [42]: 33.6 µM
TGI [43]: 33.5 µM
TGI [44]: 44.6 µM
TGI [45]: 27.7 µM
TGI [46]: 32.5 µM
TGI [47]: 39.5 µM
TGI [48]: 31 µM
TGI [49]: 27.1 µM
TGI [50]: 32.4 µM
TGI [51]: 31 µM
TGI [52]: 25.2 µM
TGI [53]: 35.9 µM
